# Source: patent US20200055839A1 (priority 2017, published 2020)
# Tested on: NL-RLuc virus
# Assay: Inhibition of HIV replication (NL-RLuc virus, luciferase readout in MT-2 cells)
# Assay type: cell-based
# Settings: Human immunodeficiency virus 1, MT2, 120 h, MT-2 cells infected with NL-RLuc virus, 5 days of incubation, 10% FBS, at least 2 experiments
# Description: Inhibition of HIV Replication:
# A recombinant NL-RLuc proviral clone was constructed in which a section of the nef gene form NL4-3 was replaced with the Renilla Luciferase gene. This virus is fully infectious and can undergo multiple cycles of replication in cell culture. In addition, the luciferous reporter provides a simple and easy method for quantitating the extent of virus growth and consequently, the antiviral activity of test compounds. The plasmid pNLRLuc contains the proviral NL-Rluc DNA cloned into pUC18 at the PvuII site. The NL-RLuc virus was prepared by transfection of 293T cells with the plasmid pNLRLuc. Transfections were performed using the LipofectAMINE PLUS kit form Invitrogen (Carlsbad, Calif.) according to the manufacturer and the virus generated was titered in MT-2 cells. For susceptibility analyses, the titrated virus was used to infect MT-2 cells in the presence of compound, and after 5 days of incubation, cells were processed and quantitated for virus growth by the amount of expressed luciferase. Assay media was RPMI 1640 supplemented with 10% heat inactivated fetal bovine serum (FBS), 100 units/ml penicillin G/100 units/ml streptomycin, 10 mM HEPES buffer pH 7.55 and 2 mM L-glutamine. The results form at least 2 experiments were used to calculate the EC50 values. Luciferase was quantitated using the Dual Luciferase kit form Promega (Madison, Wis.). Susceptibility of viruses to compounds was determined by incubation in the presence of serial dilutions of the compound. The 50% effective concentration (EC50) was calculated by using the exponential form of the median effect equation where (Fa)=1/[1+(ED50/drug conc.)^m](Johnson V A, Byington R T. Infectivity Assay. In Techniques in HIV Research. ed. Aldovini A, Walker B D. 71-76. New York: Stockton Press. 1990).
row,SMILES,EC50
1,"Cc1nc(-n2cncc2C)c(-c2ccc(OCCc3ccc(F)cc3)cc2)c(N2CCC(C)(C)CC2)c1[C@H](OC(C)(C)C)C(=O)O (single isomer, unassigned) [Example 55]",3 nM
2,"Cc1cn(-c2nc(C)c([C@H](OC(C)(C)C)C(=O)O)c(N3CCC(C)(C)CC3)c2-c2ccc(OCCc3ccc(F)cc3)cc2)cn1 (single isomer, unassigned) [Example 56]",2 nM
3,"Cc1nc(N)c(-c2ccc(OCCc3ccc(F)cc3)c(F)c2F)c(N2CCC(C)(C)CC2)c1[C@H](OC(C)(C)C)C(=O)O (single isomer, unassigned) [Example 70]",2 nM
4,"Cc1nc(C(C)O)c(-c2ccc(OCCc3ccc(F)cc3)c(F)c2)c(N2CCC(C)(C)CC2)c1[C@H](OC(C)(C)C)C(=O)O (single isomer, unassigned) [Example 236]",2 nM
5,"Cc1nc(C(C)(C)O)c(-c2ccc(OCCc3ccc(F)cc3)c(F)c2)c(N2CCC(C)(C)CC2)c1[C@H](OC(C)(C)C)C(=O)O (single isomer, unassigned) [Example 242]",5 nM
6,"Cc1ncc(-c2ccc(F)nc2OCCc2ccc(F)cc2)c(N2CCC(C)(C)CC2)c1[C@H](OC(C)(C)C)C(=O)O (single isomer, unassigned) [Example 262]",1130 nM
7,"Cc1ncc(-c2ccc(OCCc3ccc(F)cc3)nc2F)c(N2CCC(C)(C)CC2)c1[C@H](OC(C)(C)C)C(=O)O (single isomer, unassigned) [Example 263]",3 nM
8,"Cc1ncc(-c2ccc(OCC(C)C)nc2)c(N2CCC(C)(C)CC2)c1C(OC(C)(C)C)C(=O)O (stereo in doubt) [Example 409, (S)-2-(tert-butoxy)-2-(4-(4,4-dimethylpiperidin-1-yl)-6′-isobutoxy-6-methyl-[3,3′-bipyridin]-5-yl)acetic acid]",1 nM
9,"C=Cc1nc(C)c(-c2ccc(OCCc3ccc(F)cc3)cc2)c(N2CCC(C)(C)CC2)c1[C@H](OC(C)(C)C)C(=O)O [Example 1, (S)-2-(tert-Butoxy)-2-(4-(4,4-dimethylpiperidin-1-yl)-5-(4-(4-fluorophenethoxy)phenyl)-6-methyl-2-vinylpyridin-3-yl)acetic acid]",20 nM
10,"Cc1nc(N)c([C@H](OC(C)(C)C)C(=O)O)c(N2CCC(C)(C)CC2)c1-c1ccc(OCCc2ccc(F)cc2)cc1 [Example 2, (S)-2-(2-Amino-4-(4,4-dimethylpiperidin-1-yl)-5-(4-(4-fluorophenethoxy)phenyl)-6-methylpyridin-3-yl)-2-(tert-butoxy)acetic acid]",5 nM
11,"COc1nc(C)c(-c2ccc(OCCc3ccc(F)cc3)cc2)c(N2CCC(C)(C)CC2)c1[C@H](OC(C)(C)C)C(=O)O [Example 3, (S)-2-(tert-Butoxy)-2-(4-(4,4-dimethylpiperidin-1-yl)-5-(4-(4-fluorophenethoxy)phenyl)-2-methoxy-6-methylpyridin-3-yl)acetic acid]",8 nM
12,"Cc1[nH]c(=O)c([C@H](OC(C)(C)C)C(=O)O)c(N2CCC(C)(C)CC2)c1-c1ccc(OCCc2ccc(F)cc2)cc1 [Example 4, (S)-2-(tert-butoxy)-2-(4-(4,4-dimethylpiperidin-1-yl)-5-(4-(4-fluorophenethoxy)phenyl)-6-methyl-2-oxo-1,2-dihydropyridin-3-yl)acetic acid]",8 nM
13,"Cc1nc(C#N)c([C@H](OC(C)(C)C)C(=O)O)c(N2CCC(C)(C)CC2)c1-c1ccc(OCCc2ccc(F)cc2)cc1 [Example 5, (S)-2-(tert-Butoxy)-2-(2-cyano-4-(4,4-dimethylpiperidin-1-yl)-5-(4-(4-fluorophenethoxy)phenyl)-6-methylpyridin-3-yl)acetic acid]",7 nM
14,"Cc1nc(C(N)=O)c([C@H](OC(C)(C)C)C(=O)O)c(N2CCC(C)(C)CC2)c1-c1ccc(OCCc2ccc(F)cc2)cc1 [Example 6, (S)-2-(tert-Butoxy)-2-(2-carbamoyl-4-(4,4-dimethylpiperidin-1-yl)-5-(4-(4-fluorophenethoxy)phenyl)-6-methylpyridin-3-yl)acetic acid]",14 nM
15,"CC1(C)CCN(c2c(-c3ccc(OCCc4ccc(F)cc4)cc3)cnc(CF)c2[C@H](OC(C)(C)C)C(=O)O)CC1 [Example 7, (S)-2-(tert-Butoxy)-2-(4-(4,4-dimethylpiperidin-1-yl)-2-(fluoromethyl)-5-(4-(4-fluorophenethoxy)phenyl)pyridin-3-yl)acetic acid]",2 nM
16,"CC1(C)CCN(c2c(-c3ccc(OCCc4ccc(F)cc4)cc3)cnc(CO)c2[C@H](OC(C)(C)C)C(=O)O)CC1 [Example 8, (S)-2-(tert-Butoxy)-2-(4-(4,4-dimethylpiperidin-1-yl)-5-(4-(4-fluorophenethoxy)phenyl)-2-(hydroxymethyl)pyridin-3-yl)acetic acid]",3 nM
17,"Cc1nc(C(=O)NS(=O)(=O)C2CC2)c(-c2ccc(OCCc3ccc(F)cc3)cc2)c(N2CCC(C)(C)CC2)c1[C@H](OC(C)(C)C)C(=O)O [Example 9, (S)-2-(tert-Butoxy)-2-(6-((cyclopropylsulfonyl)carbamoyl)-4-(4,4-dimethylpiperidin-1-yl)-5-(4-(4-fluorophenethoxy)phenyl)-2-methylpyridin-3-yl)acetic acid]",380 nM
18,"Cc1nc(C(=O)N2CCS(=O)(=O)CC2)c(-c2ccc(OCCc3ccc(F)cc3)cc2)c(N2CCC(C)(C)CC2)c1[C@H](OC(C)(C)C)C(=O)O [Example 10, (S)-2-(tert-Butoxy)-2-(4-(4,4-dimethylpiperidin-1-yl)-6-(1,1-dioxidothiomorpholine-4-carbonyl)-5-(4-(4-fluorophenethoxy)phenyl)-2-methylpyridin-3-yl)acetic acid]",31 nM
19,"Cc1nc(C(=O)N2CCC(C)(C)CC2)c(-c2ccc(OCCc3ccc(F)cc3)cc2)c(N2CCC(C)(C)CC2)c1[C@H](OC(C)(C)C)C(=O)O [Example 11, (S)-2-(tert-Butoxy)-2-(4-(4,4-dimethylpiperidin-1-yl)-6-(4,4-dimethylpiperidine-1-carbonyl)-5-(4-(4-fluorophenethoxy)phenyl)-2-methylpyridin-3-yl)acetic acid]",4 nM
20,"Cc1nc(C(=O)N[C@H]2CC[C@H](C)CC2)c(-c2ccc(OCCc3ccc(F)cc3)cc2)c(N2CCC(C)(C)CC2)c1[C@H](OC(C)(C)C)C(=O)O [Example 12, (S)-2-(tert-Butoxy)-2-(4-(4,4-dimethylpiperidin-1-yl)-5-(4-(4-fluorophenethoxy)phenyl)-2-methyl-6-(((1 r, 4S)-4-methylcyclohexyl)carbamoyl)pyridin-3-yl)acetic acid]",4 nM
21,"Cc1nc(C(N)=O)c(-c2ccc(OCCc3ccc(F)cc3)cc2)c(N2CCC(C)(C)CC2)c1[C@H](OC(C)(C)C)C(=O)O [Example 13, (S)-2-(tert-Butoxy)-2-(6-carbamoyl-4-(4,4-dimethylpiperidin-1-yl)-5-(4-(4-fluorophenethoxy)phenyl)-2-methylpyridin-3-yl)acetic acid]",10 nM
22,"Cc1ncc(-c2ncc(OCCc3ccc(F)cc3)cn2)c(N2CCC(C)(C)CC2)c1[C@H](OC(C)(C)C)C(=O)O [Example 14, (S)-2-(tert-Butoxy)-2-(4-(4,4-dimethylpiperidin-1-yl)-5-(5-(4-fluorophenethoxy)pyrimidin-2-yl)-2-methylpyridin-3-yl)acetic acid]",2 nM
23,"COc1ccc(-c2cnc(C)c([C@H](OC(C)(C)C)C(=O)O)c2N2CCC(C)(C)CC2)nn1 [Example 15, (S)-2-(tert-Butoxy)-2-(4-(4,4-dimethylpiperidin-1-yl)-5-(6-methoxypyridazin-3-yl)-2-methylpyridin-3-yl)acetic acid]",16 nM
24,"Cc1ncc(-c2cnc(OCCc3ccc(F)cc3)cn2)c(N2CCC(C)(C)CC2)c1[C@H](OC(C)(C)C)C(=O)O [Example 16, (S)-2-(tert-Butoxy)-2-(4-(4,4-dimethylpiperidin-1-yl)-5-(5-(4-fluorophenethoxy)pyrazin-2-yl)-2-methylpyridin-3-yl)acetic acid]",2 nM
25,"Cc1ncc(-c2ccc(OCCc3ccc(F)cc3)nn2)c(N2CCC(C)(C)CC2)c1[C@H](OC(C)(C)C)C(=O)O [Example 17, (S)-2-(tert-Butoxy)-2-(4-(4,4-dimethylpiperidin-1-yl)-5-(6-(4-fluorophenethoxy)pyridazin-3-yl)-2-methylpyridin-3-yl)acetic acid]",85 nM

# Same assay, conditions: MT-2 cells infected with NL-RLuc virus, 5 days of incubation, 10% FBS, at least 2 experiments
row,SMILES,EC50
1,"Cc1nc(N)c(-c2ccc(OCCc3ccc(F)cc3)c(F)c2F)c(N2CCC(C)(C)CC2)c1[C@H](OC(C)(C)C)C(=O)O (single isomer, unassigned) [Example 71]",2 nM
2,"Cc1nc(C(C)O)c(-c2ccc(OCCc3ccc(F)cc3)c(F)c2)c(N2CCC(C)(C)CC2)c1[C@H](OC(C)(C)C)C(=O)O (single isomer, unassigned) [Example 237]",3 nM
3,"Cc1nc(C(C)(C)O)c(-c2ccc(OCCc3ccc(F)cc3)c(F)c2)c(N2CCC(C)(C)CC2)c1[C@H](OC(C)(C)C)C(=O)O (single isomer, unassigned) [Example 243]",7 nM
